# From US7491827B2, “Aryl sulfonamides useful as inhibitors of chemokine receptor activity” (Millennium Pharmaceuticals, Inc., priority 2003, dated 2009)
# Molecular target: T1, cloned human CCR8 receptor stably expressed in L1.2 cells (Homo sapiens, UniProt P51685)
# T1 construct: expressed in transfected cells
# Assay: whole cell binding screen: inhibition of biotinylated human I309 binding to CCR8 (FMAT 8100 HTS)
# Conditions: Ki of compounds to inhibit I-309 binding to CCR8, L1.2/hCCR8 cells, biotinylated human I-309, 10 point concentration response starting at 10 μM
# Outline: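 L1.2 murine pre-B cells stably expressing human CCR8 (4.0×10^5 cells/mL) in HBSS/HEPES/fatty-acid-free BSA/azide buffer were mixed with biotinylated human I309 and compounds for 0.5 h, read by FMAT fluorescence. 10-point curves from 10 μM final; percent inhibition normalized to no-inhibitor and 100 nM unlabeled I309 controls.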
# T1 sequence (P51685 whole entry): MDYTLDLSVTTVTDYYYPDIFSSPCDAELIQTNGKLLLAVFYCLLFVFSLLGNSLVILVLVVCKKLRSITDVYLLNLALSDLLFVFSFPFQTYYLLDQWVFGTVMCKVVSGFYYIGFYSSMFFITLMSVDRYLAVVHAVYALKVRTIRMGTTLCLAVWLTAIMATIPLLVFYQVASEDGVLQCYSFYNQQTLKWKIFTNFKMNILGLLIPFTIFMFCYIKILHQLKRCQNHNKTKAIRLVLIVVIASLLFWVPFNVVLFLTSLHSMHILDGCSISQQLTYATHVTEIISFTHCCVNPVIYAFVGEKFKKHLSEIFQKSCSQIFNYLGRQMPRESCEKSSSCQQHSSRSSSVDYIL
row,SMILES,Ki
1,"CNC(=O)N1CCC(NS(=O)(=O)c2ccc(NC(=O)c3ccccc3C)c3ccccc23)CC1 [Compound C-41, 4-[4-(2-Methyl-benzoylamino)-naphthalene-1-sulfonylamino]-piperidine-1-carboxylic acid methylamide]",< 0.5 µM

# Same assay, conditions: L1.2/hCCR8 cells, biotinylated human I-309, 10 point concentration response starting at 10 μM; read-out: Ki of compounds to inhibit I-309 binding to CCR8
row,Ki,SMILES
1,< 0.5 µM,"CCN1CCC(NS(=O)(=O)c2cccc3c(NC(=O)c4ccccc4C)cccc23)CC1 [Compound H-14, N-[5-(1-Ethyl-piperidin-4-ylsulfamoyl)-naphthalen-1-yl]-2-methyl-benzamide]"
2,< 0.5 µM,"Cc1ccccc1C(=O)Nc1ccc(S(=O)(=O)N[C@H]2CCN(C(=O)OC(C)C)C[C@@H]2C)c2ccccc12 (racemic) [Compound C-18, (±)-trans-3-methyl-4-[4-(2-methyl-benzoylalino)-naphthalene-1-sulfonylamino]-piperidine-1-carboxylic acid isopropyl ester]"
3,< 0.5 µM,"Cc1ccccc1C(=O)Nc1ccc(S(=O)(=O)NC2CCNC2)c2ccccc12 (racemic) [Compound C-48, (±)-2-Methyl-N-[4-(pyrrolidin-3-ylsulfamoyl)-naphthalen-1-yl]-benzamide]"
4,< 0.5 µM,"CCOC(=O)N1CCC(NS(=O)(=O)c2cccc3c(CNC4CCCCC4)cccc23)CC1 [Compound H-46, 4-(5-Cyclohexylainnomethyl-naphthalene-1-sulfonylainino)-piperidine-1-carboxylic acid ethyl ester]"
5,< 0.5 µM,"CCCC(=O)N1CC[C@H](NS(=O)(=O)c2ccc(NC(=O)c3ccccc3C)c3ccccc23)[C@H](C)C1 (racemic) [Compound C-139, (±)-cis-N-[4-(1-Butryl-3-methyl-piperidin-4-ylsuffamoyl)-naphthalen-1-yl]-2-methyl-benzamide]"
6,< 1 µM,"CCC(C)N1CCC(NS(=O)(=O)c2ccc(NC(=O)c3ccccc3C)c3ccccc23)CC1 (racemic) [Compound C-32, (±)-N-[4-(1-sec-Butyl-piperidin-4-ylsulfamoyl)-naphthalen-1-yl]-2-methyl-benzamide]"
7,< 0.5 µM,"CCCC(=O)N1CCC(NS(=O)(=O)c2ccc(NC(=O)c3ccccc3C(F)(F)F)c3ccccc23)CC1 [Compound C-101, N-[4-(1-Butyryl-piperidin-4-ylsulfamoyl)-naphthalen-1-yl]-2-trifluoromethyl-benzamide]"
8,< 0.5 µM,Cc1ccccc1C(=O)Nc1ccc(S(=O)(=O)N[C@H]2CCNC[C@H]2CC(C)C)c2ccccc12 [Compound J-52]
9,< 30 µM,"CCOC(=O)N1CCC(NS(=O)(=O)c2cccc3c(C(=O)Nc4cccc(C)c4)cccc23)CC1 [Compound H-41, 4-(5-m-Tolylcarbamoyl-naphthalene-1-sulfonylamino)-piperidine-1-carboxylic acid ethyl ester]"
10,< 0.5 µM,"COc1ccc(NS(=O)(=O)c2ccc(NC(=O)Cc3ccccc3)c3ccccc23)cc1 [Compound B-7, N-[4-(4-Methoxy-phenylsulfamoyl)-naphthalen-1-yl]-2-phenyl-acetamide]"
11,< 0.5 µM,"CN(C)C(=O)N1CCC(NS(=O)(=O)c2ccc(C(=O)N(C)C3CCCCC3)c3ccccc23)CC1 [Compound F-28, 4-[4-(Cyclohexyl-methyl-carbamoyl)-naphthalene-1-sulfonylamino]-piperidine-1-carboxylic acid dimethylamide]"
12,< 0.5 µM,"CCCC(=O)N1CC[C@H](NS(=O)(=O)c2ccc(NC(=O)c3c(C)noc3C)c3ccccc23)[C@H](C)C1 (racemic) [Compound D-5, (±)-(cis)-3,5-Dimethyl-isoxazole-4-carboxylic acid [4-(1-butyryl-3-methyl-piperidin-4-ylsulfamoyl)-naphthalen-1-yl]-amide]"
13,< 30 µM,"CN1CCCC(C(=O)Nc2ccc(S(=O)(=O)NC3CCNCC3)c3ccccc23)C1 [Compound D-22, 1-Methyl-piperidine-3-carboxylic acid [4-(piperidin-4-ylsulfamoyl)-naphthalen-1-yl]-amide]"
14,< 0.5 µM,"Cc1ccccc1C(=O)Nc1ccc(S(=O)(=O)NC2CCN(c3ncccn3)CC2)c2ccccc12 [Compound C-57, 2-Methyl-N-[4-(1-pyrimidin-2-yl-piperidin-4-ylsulfamoyl)-naphthalen-1-yl]-benzamide]"
